Reference: ChEMBL document CHEMBL1122992, “Phosphorus-nitrogen compounds. 26. Phosphaminimides. 2. 2,2'-Phosphinylidenebis(1,1,1-trimethylhydrazinium) iodide inner salts as agents affecting ganglionic transmission” (J Med Chem, 1985)

Each compound was assayed on Rattus norvegicus (assay: LD50 values was measured by using probit analysis method in rats). Details: in vivo.
Format: ADME, organism-based
In the case of `C[N+](C)(C)N=P([O-])(N[N+](C)(C)C)Oc1ccccc1.[I-]` (stereo unspecified), the LD50 is reported as ~ 15 ug ml-1. Compound `C[N+](C)(C)NP(=O)(N[N+](C)(C)C)Oc1ccccc1.[I-].[I-]` has an LD50 of 2.37 µg/mL. For `C[N+](C)(C)NP(=O)(N[N+](C)(C)C)c1ccccc1.[I-].[I-]`, the LD50 was 2.15 µg/mL. In the case of `C[N+](C)(C)[N-]P(=O)(N[N+](C)(C)C)c1ccccc1.[I-]` (stereo unspecified), the LD50 is reported as ~ 15 ug ml-1. `C[N+](C)(C)N=P([O-])(N[N+](C)(C)C)c1ccccc1.[I-]` (stereo unspecified) was tested, and the LD50 was ~ 15 ug ml-1. `C[N+](C)(C)[N-]P(=O)(N[N+](C)(C)C)Oc1ccccc1.[I-]` (stereo unspecified) showed an LD50 of 15 µg/mL.
